Test results as given in ChEMBL document CHEMBL1201862, “PubChem BioAssay data set” (2004).
Active and inactive are the calls of the source.

Key:
HeLa = test: Cytotoxicity counterscreen assay for transcriptional activators of heat shock protein 70 (Hsp70). [Related pubchem assays: 1203, 1252 ]; assay type: functional; details: Homo sapiens;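 further: cells exposed to compound for 16 hours before readout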
[1] = target: T1, Neuropeptide Y receptor type 2 (Homo sapiens, UniProt P49146); test: IC50 for human NPY-Y2 blockade – cell-based, counter-screen for NPY-Y1 antagonist project, dose response (AID 1278); assay type: functional
T1 sequence (P49146 whole entry): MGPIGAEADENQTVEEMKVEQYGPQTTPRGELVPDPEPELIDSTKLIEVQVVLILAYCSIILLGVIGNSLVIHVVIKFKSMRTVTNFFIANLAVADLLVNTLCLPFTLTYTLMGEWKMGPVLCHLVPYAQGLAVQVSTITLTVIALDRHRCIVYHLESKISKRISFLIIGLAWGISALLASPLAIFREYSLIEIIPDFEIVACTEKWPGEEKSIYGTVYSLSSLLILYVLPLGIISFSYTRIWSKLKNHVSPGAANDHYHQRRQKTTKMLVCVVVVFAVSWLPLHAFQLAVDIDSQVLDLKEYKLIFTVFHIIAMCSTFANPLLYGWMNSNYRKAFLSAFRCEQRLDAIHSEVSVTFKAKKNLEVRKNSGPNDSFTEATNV

[2] = target: T2, Neuropeptide Y receptor type 1 (Homo sapiens, UniProt P25929); test: IC50 of human NPY-Y1 blockers – cell-based, dose response (AID 1277); assay type: functional
T2 sequence (P25929 whole entry): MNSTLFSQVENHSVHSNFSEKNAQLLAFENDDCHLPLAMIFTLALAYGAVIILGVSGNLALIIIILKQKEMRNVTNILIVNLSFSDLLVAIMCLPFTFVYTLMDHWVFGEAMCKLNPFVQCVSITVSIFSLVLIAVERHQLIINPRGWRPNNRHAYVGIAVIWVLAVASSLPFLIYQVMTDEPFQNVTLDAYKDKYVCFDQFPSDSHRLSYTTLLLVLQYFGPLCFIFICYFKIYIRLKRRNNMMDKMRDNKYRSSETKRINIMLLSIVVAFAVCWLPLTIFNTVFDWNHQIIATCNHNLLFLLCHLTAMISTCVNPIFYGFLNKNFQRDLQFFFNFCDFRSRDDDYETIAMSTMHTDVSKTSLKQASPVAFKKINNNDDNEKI

[3] = target: T3, Rac GTPase-activating protein 1 (Homo sapiens, UniProt Q9H0H5); test: blockers of MgcRacGAP-driven Rac1 GTP hydrolysis – biochemical, ADP Hunter fluorescence, primary and confirmatory, confirmation (AID 624330); assay type: functional
T3 sequence (Q9H0H5 whole entry): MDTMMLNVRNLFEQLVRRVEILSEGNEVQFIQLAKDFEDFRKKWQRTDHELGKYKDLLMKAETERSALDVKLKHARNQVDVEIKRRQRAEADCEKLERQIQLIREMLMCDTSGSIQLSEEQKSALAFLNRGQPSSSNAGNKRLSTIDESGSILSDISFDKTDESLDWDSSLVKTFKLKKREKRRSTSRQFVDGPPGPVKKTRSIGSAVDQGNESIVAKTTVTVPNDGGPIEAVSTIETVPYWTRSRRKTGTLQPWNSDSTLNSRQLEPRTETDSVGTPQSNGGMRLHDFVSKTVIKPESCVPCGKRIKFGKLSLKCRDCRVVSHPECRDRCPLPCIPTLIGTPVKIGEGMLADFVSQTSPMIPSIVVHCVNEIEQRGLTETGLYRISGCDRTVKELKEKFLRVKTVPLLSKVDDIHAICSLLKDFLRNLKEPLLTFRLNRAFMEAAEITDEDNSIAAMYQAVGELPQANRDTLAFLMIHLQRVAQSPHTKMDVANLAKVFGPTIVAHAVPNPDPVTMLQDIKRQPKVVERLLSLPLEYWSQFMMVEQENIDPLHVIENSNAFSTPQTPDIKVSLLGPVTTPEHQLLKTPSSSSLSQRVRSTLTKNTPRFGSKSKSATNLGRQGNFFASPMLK

[4] = NIH-3T3 fibroblast cytotoxicity, dose response, cytotoxicity control, cell-based, fluorescence, Alamar Blue, secondary assay (AID 2327); assay type: functional;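 further: NIH-3T3 mouse fibroblasts cultured with fluconazole at 8 µg/mL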
[5] = fluconazole-exposed Candida albicans growth modulators – fluorescence, retest, confirmation (AID 2467); assay type: functional, cell-based
[6] = mitochondrial function rescue without frataxin homolog – Friedreich's ataxia, plus single-dose screen, dose response (AID 1465); assay type: functional;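 further: yeast depleted of Yfh1p frataxin homolog grown on glycerol needing respiration; WST-1 tetrazolium dye reduction as measure of cellular dehydrogenase metabolic activity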
Nonstructural protein 1 = Nonstructural protein 1 (Influenza A virus, UniProt Q194T2); assay type: functional, Influenza A virus (A/California/07/2009(H1N1))
Chain of Nonstructural protein 1 (Q194T2 whole entry): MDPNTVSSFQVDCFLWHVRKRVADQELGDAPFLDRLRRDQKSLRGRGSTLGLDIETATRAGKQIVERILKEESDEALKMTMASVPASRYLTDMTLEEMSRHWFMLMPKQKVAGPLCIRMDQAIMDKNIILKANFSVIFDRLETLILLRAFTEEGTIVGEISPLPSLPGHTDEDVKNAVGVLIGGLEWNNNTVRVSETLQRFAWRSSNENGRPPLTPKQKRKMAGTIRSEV

INS1 = test: INS-1E survival protection against cytokine death – cell-based, luminescence, retest, dose response (AID 449756); assay type: functional; details: Rattus norvegicus;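 further: cell death triggered by IL-1 beta plus TNF-alpha plus IFN-gamma mixture; protective hits raise ATP signal compared with cytokine alone wells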
Mucolipin-3 = Mucolipin-3 (Homo sapiens, UniProt Q8TDD5); test: Dose response cell-based high-throughput screening assay for agonists of the transient receptor potential channel ML3 (TRPML3). [Related pubchem assays: 1526, 1424, 1448 ]; assay type: functional
Chain of Mucolipin-3 (Q8TDD5 whole entry): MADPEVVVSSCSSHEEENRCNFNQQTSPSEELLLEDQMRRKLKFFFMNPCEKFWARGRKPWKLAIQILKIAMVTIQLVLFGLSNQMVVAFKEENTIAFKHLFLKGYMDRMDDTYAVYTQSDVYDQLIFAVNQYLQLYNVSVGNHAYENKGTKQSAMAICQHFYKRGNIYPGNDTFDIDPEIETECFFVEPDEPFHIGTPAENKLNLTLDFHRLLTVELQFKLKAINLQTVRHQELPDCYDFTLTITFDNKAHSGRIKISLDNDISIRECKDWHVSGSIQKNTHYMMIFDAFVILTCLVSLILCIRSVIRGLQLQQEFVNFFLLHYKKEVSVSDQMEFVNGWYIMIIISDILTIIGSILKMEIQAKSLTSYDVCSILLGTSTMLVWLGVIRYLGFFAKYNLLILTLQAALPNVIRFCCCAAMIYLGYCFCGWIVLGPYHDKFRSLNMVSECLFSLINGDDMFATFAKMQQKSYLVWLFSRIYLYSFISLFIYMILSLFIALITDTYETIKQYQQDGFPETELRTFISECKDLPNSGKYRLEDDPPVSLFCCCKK

[7] = target: T4, Calpain-2 catalytic subunit (Sus scrofa, UniProt P43367); test: m-calpain protease blockers, concentration series – biochemical, fluorogenic peptide substrate, dose response (AID 1420); assay type: functional
T4 sequence (P43367 whole entry): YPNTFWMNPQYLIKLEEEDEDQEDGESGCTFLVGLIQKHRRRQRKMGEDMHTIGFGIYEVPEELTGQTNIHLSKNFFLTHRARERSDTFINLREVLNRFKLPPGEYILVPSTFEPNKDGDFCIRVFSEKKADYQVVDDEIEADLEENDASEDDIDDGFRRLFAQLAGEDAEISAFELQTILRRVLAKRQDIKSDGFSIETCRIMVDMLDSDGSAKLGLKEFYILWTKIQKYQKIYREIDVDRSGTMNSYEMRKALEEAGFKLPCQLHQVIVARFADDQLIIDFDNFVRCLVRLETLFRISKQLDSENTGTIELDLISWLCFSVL

Ion channel NompC [8] = target: T5, Ion channel NompC (Danio rerio, UniProt Q7T1G6); test: Late stage counterscreen for the probe development effort to identify selective agonists of the Transient Receptor Potential Channels 3 (TRPML3): fluorescence-based cell-based dose response assay for TRPN1 agonists.; assay type: functional
T5 sequence (Q7T1G6 whole entry): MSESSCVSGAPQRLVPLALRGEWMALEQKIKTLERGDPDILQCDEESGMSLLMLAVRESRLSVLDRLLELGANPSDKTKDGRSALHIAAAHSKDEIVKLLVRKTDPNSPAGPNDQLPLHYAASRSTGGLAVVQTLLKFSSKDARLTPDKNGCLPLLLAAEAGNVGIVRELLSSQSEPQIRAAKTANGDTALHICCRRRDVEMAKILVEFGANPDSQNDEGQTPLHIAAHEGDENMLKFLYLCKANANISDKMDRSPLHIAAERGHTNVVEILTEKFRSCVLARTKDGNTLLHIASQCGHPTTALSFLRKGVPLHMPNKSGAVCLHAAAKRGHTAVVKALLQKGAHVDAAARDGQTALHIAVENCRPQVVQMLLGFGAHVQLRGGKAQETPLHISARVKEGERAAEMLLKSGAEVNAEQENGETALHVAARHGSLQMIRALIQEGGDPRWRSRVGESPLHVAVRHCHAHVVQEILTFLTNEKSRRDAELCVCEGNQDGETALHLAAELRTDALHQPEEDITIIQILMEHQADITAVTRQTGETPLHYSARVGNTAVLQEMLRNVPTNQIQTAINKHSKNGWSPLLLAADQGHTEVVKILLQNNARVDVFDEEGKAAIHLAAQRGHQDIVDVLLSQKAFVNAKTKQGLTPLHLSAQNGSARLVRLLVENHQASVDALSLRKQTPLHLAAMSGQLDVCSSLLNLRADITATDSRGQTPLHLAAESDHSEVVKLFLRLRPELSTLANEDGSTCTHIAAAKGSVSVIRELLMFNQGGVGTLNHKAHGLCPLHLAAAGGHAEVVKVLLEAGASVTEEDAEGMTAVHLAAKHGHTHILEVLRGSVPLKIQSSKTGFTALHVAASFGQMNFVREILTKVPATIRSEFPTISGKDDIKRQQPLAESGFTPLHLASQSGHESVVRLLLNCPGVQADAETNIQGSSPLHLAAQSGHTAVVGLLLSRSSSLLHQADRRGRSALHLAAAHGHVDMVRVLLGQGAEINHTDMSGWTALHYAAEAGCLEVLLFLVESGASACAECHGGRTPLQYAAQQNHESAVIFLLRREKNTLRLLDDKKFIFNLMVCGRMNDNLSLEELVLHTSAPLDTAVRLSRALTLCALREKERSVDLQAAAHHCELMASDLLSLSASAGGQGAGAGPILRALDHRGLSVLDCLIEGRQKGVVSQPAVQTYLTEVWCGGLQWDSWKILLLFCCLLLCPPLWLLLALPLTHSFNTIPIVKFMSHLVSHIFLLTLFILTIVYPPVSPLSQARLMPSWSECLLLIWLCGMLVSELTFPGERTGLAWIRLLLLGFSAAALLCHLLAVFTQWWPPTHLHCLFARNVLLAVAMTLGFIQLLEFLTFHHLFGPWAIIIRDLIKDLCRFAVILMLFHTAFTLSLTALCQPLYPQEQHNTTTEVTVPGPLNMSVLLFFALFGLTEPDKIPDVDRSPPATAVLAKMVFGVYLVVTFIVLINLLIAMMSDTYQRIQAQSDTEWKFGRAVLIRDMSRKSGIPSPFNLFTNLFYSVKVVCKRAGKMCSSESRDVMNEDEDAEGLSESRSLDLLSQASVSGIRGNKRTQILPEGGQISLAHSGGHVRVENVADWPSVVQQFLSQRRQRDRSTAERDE

Ion channel NompC [9] = target: T5, Ion channel NompC; test: Fluorescence counterscreen assay for TRPML3 agonists: dose response cell-based high-throughput screening assay to identify agonists of the transient receptor potential channel N1 (TRPN1). [Related pubchem assays: 1526, 1424, 1448 ]; assay type: functional
[10] = A Cell Based Secondary Assay To Explore Cytotoxicity of Compounds that Sensitize Mycobacterium Tuberculosis to Beta-Lactam Antibiotics.; assay type: functional
[11] = CCR5-tropic HIV-1 fusion blockers – cell-based, CCR5-tropic Env, dose response (AID 2279); assay type: functional
[12] = Luminescence Cell-Based Dose Retest to Confirm Inhibitors of Cancer Stem Cells. [Related pubchem assays (depositor defined):AID2717, AID2721]; assay type: functional; details: Homo sapiens
[13] = target: T6, Replicative DNA helicase DnaB (Mycobacterium tuberculosis, UniProt P9WMR3); test: DnaB intein splicing inhibitors, dose response, biochemical, cell-free fluorescence (AID 449749); assay type: functional
T6 sequence (P9WMR3 whole entry): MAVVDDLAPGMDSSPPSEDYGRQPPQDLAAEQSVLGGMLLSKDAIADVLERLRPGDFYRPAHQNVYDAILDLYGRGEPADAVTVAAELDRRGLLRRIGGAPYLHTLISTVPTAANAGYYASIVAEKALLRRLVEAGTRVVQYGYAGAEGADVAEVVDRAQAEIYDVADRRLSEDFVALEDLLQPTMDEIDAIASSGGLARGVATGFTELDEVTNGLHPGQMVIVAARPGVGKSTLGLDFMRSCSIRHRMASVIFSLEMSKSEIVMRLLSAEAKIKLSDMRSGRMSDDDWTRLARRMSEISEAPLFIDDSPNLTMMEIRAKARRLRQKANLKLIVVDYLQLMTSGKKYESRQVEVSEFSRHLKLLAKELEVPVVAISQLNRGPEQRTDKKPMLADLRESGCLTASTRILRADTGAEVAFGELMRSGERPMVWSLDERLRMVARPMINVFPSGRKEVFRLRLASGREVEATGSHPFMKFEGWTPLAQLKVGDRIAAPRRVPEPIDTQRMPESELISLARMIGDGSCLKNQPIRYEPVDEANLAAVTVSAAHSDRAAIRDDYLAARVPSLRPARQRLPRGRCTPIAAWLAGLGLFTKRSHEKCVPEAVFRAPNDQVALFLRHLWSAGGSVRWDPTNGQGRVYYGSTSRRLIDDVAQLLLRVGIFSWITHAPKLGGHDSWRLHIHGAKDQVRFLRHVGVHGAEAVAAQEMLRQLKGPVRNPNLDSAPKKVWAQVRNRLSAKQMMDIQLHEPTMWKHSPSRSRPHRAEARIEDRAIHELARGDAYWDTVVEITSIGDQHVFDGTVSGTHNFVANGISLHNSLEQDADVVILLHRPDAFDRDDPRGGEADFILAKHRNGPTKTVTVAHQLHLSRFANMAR

Protein RecA = target: T7, Protein RecA (Mycobacterium tuberculosis, UniProt P9WHJ3); test: Fluorescence Cell-Free Homogeneous Dose Retest to Identify Inhibitors of RecA-Intein Splicing Activity. [Related pubchem assays (depositor defined):AID2097, AID2223, AID489010, AID492950]; assay type: functional
T7 sequence (P9WHJ3 whole entry): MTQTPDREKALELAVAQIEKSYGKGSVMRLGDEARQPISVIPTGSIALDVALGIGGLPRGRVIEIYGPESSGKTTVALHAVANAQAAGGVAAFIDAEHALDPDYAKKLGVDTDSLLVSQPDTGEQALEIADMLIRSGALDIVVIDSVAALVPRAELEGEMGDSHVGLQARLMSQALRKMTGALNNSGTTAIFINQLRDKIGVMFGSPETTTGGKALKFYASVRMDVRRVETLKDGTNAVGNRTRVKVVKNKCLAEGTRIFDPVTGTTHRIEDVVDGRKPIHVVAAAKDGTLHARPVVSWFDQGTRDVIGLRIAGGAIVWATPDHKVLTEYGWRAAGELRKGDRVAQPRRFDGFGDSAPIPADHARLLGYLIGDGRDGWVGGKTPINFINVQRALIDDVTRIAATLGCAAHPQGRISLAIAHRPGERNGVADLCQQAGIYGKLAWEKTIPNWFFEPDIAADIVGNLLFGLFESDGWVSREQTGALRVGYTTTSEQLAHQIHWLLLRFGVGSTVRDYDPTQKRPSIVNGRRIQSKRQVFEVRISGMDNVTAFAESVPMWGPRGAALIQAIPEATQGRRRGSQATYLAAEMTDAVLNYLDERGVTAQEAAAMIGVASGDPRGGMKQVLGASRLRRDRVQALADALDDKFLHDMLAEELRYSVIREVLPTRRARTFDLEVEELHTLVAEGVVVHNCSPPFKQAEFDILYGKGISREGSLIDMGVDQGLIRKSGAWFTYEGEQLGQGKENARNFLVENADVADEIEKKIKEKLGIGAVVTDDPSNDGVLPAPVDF

[14] = target: T2, Neuropeptide Y receptor type 1; assay type: functional
[15] = Trypanosoma cruzi growth suppression in host cells – NIH3T3 host cells, beta-gal luminescence, confirmation (AID 2044); assay type: functional, cell-based;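 further: intracellular parasites grown in NIH/3T3 mouse fibroblasts as host cells; luminescent beta-galactosidase reporter signal from transgenic T. cruzi replicating inside host cells; inhibitors lower the luminescence signal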
[16] = target: T1, Neuropeptide Y receptor type 2; assay type: functional, cell-based
[17] = NIH3T3 cell viability loss – ATP luminescence, mouse fibroblasts, counter-screen, dose response (AID 2010); assay type: functional, cell-based;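 further: cells exposed to compound for about 90 hours before reading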
NS3 = NS3 (Hepatitis C virus, UniProt A3EZJ3); test: PubChem AID 2173; design: species or system Hepacivirus hominis
Chain of NS3 (A3EZJ3 whole entry, the tested form may be a part): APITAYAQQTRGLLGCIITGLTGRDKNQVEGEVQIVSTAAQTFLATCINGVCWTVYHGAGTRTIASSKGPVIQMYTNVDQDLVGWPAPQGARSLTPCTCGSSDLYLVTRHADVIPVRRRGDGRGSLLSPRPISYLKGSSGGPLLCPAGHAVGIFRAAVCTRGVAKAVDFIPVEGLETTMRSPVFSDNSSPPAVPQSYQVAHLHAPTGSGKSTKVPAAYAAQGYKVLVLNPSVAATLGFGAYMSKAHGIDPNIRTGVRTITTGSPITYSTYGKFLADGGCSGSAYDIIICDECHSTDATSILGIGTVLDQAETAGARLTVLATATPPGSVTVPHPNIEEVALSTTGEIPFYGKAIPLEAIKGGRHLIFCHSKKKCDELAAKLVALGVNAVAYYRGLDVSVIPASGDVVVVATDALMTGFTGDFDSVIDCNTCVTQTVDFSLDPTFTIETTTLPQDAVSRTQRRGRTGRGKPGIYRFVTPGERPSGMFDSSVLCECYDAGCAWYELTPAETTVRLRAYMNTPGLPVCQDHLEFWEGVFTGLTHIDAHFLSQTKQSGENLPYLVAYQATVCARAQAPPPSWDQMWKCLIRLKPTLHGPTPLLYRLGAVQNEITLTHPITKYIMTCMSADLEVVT

[18] = target: T8, Carboxy-terminal domain RNA polymerase II polypeptide A small phosphatase 1 (Homo sapiens, UniProt Q9GZU7); test: CTDSP1 inhibitors, concentration-response, biochemical, absorbance readout, ultra-high-throughput screen actives (AID 540297); assay type: functional
T8 sequence (Q9GZU7 whole entry): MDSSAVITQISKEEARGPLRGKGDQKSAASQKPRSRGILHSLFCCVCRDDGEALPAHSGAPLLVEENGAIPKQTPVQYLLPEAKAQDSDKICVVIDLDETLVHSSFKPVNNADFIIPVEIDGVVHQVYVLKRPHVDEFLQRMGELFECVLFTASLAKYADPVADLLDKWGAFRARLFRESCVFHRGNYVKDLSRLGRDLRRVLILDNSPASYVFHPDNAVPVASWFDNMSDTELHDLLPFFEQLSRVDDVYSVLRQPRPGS

[19] = Luminescence-based counterscreen assay for KLF5 inhibitors: dose response cell-based high throughput screening assay to identify cytotoxic compounds using the IEC-6 intestinal epithelial cell line. [Related pubchem assays: 1700 (Primary screen.), 1834 (Confirmation screen.), 1858 (Summary AID.), 1905 (Counterscreen.)]; assay type: functional

Which IC50 (cells) does the source give for `O=C(CCCn1c(=O)c2sccc2n(Cc2cc(=O)n3ccccc3n2)c1=O)NCc1ccco1` here?
Its IC50 is 36.6 µM (active).

Which CC50 (HeLa) does the source give for `Cc1ccc(N=C(S)NC(NC(=O)c2ccccc2)C(Cl)(Cl)Cl)c(C)c1` (configuration not stated) here?
The CC50 was 47 µM (not active).

With `COc1ccc(Oc2c[nH]nc2-c2ccc(O)cc2O)cc1` as the compound, how does the IC50 [1] read?
The IC50 was > 35 µM (not active).

And the IC50 [2]?
The IC50 was > 35 µM (not active).

What about the IC50 [3] of the same compound?
Its IC50 is 28.3 µM (active).

What does the source list for `Cc1ccc2cc(C3C(C#N)=C(N)Oc4c3ccc3cccnc43)c(O)nc2c1` (configuration not stated)?
EC50 [4]: > 150 µM (inactive); EC50 [5]: > 38 µM (not active); EC50 [6]: > 100 µM (active); IC50 (Nonstructural protein 1): 14.3 µM (active); AC50 (INS1): 1.02 µM (active)

Which EC50 (Mucolipin-3) does the source give for `CCOc1ccc(S(=O)(=O)N2CCCCC2)c(C)c1C` here?
Its EC50 is 1.43 µM (active).

And the IC50 [7]?
The IC50 was 32.6 µM (not active).

What about the EC50 (Ion channel NompC [8]) of the same compound?
Its EC50 is > 29.9 µM (not active).

What about the EC50 (Ion channel NompC [9]) of the same compound?
The EC50 was > 29.9 µM (not active).

Which CC50 [10] does the source give for `Cc1nn(CCc2nn[nH]n2)c2nc(-c3ccc(C4CCCCC4)cc3)cc(C(F)(F)F)c12` here?
The CC50 was 34.4 µM (active).

And the IC50 [11]?
Its IC50 is 21.7 µM (active).

What about the AC50 [12] of the same compound?
Its AC50 is 2.14 µM (active).

And the AC50 [13]?
The AC50 was 3.83 µM (active).

And the EC50 (Protein RecA)?
Its EC50 is 38.1 µM (active).

With `CN1CCN(c2ccccc2NC(=O)c2ccc(-c3ccc(Cl)cc3Cl)o2)CC1` as the compound, how does the IC50 [14] read?
Its IC50 is 4.46 µM (active).

What about the EC50 [15] of the same compound?
Its EC50 is 1.06 µM (active).

And the IC50 [16]?
Its IC50 is > 12 µM (not active).

What about the EC50 [17] of the same compound?
Its EC50 is > 60 µM (not active).

What about the AC50 [12] of the same compound?
Its AC50 is 3.09 µM (active).

With `Cc1ccc(C(=O)O)cc1-c1ccc(/C=C2\SC(=O)N(CC(=O)Nc3ccccc3)C2=O)o1` as the compound, how does the IC50 (NS3) read?
Its IC50 is 5.39 µM (active).

What about the IC50 [18] of the same compound?
The IC50 was 2.75 µM (active).

With `COc1ccc(/C=N/NC(=O)CCn2c3ccccc3c3ccccc32)cc1O` as the compound, how does the IC50 [19] read?
The IC50 was 2.02 µM (active).
